According to US6669951B2, “Compositions and methods for enhancing drug delivery across and into epithelial tissues” (CellGate, Inc., priority 1999, dated 2003):
Peptide text beside a SMILES is read from it. * marks the point of attachment. FITC = O=C1OC2(c3ccc(O)cc3Oc3cc(O)ccc32)c2ccc(NC(=S)*)cc21; Ahx = NCCCCCC(=O)O

How the values were obtained:
[1] = system: Jurkat cells; experiment: FACS cellular uptake assay; assay type: cell-based, human; conditions: for additional loss of intracellular fluorescence from the one amino acid truncated analogs: further deletion of one residue; for cellular uptake relative to Tat49-57: Jurkat cells, 2% FCS
Protocol: (§1) The accuracy of this method for determining concentration was established by weighing selected samples and dissolving them in a known amount of PBS buffer. The concentrations determined by UV spectroscopy correlated with the amounts weighed out manually. Jurkat cells (human T cell line), murine B cells (CH27), or human PBL cells were grown in 10% fetal calf serum and DMEM and each of these were used for cellular uptake experiments. […] The microtiter plates were centrifuged and the cells were isolated, washed with cold PBS (3×250 μL), incubated with 0.05% trypsin/0.53 mM EDTA at 37° C. for 5 min, washed with cold PBS, and resuspended in PBS containing 0.1% propidium iodide. The cells were analyzed using fluorescent flow cytometry (FACScan, Becton Dickinson) and cells staining with propidium iodide were excluded from the analysis. The data presented is the mean fluorescent signal for the 5000 cells collected.
Inhibition of Cellular Uptake with Sodium Azide. The assays were performed as previously described with the exception that the cells used were preincubated for 30 min with 0.5% sodium azide in 2% FCS/PBS buffer prior to the addition of fluorescent peptides and the cells were washed with 0.5% sodium azide in PBS buffer. All of the cellular uptake assays were run in parallel in the presence and absence of sodium azide.
To determine the structural requirements for the cellular uptake of short arginine-rich peptides, a series of fluorescently-labeled truncated analogues of Tat49-57 were synthesized using standard solid-phase chemistry. See, e.g., Atherton, E. et al. SOLID-PHASE PEPTIDE […] (IRL: Oxford, Engl. 1989). A fluorescein moiety was attached via an aminohexanoic acid spacer on the amino termini. The ability of these fluorescently labeled peptides to enter Jurkat cells was then analyzed using fluorescent activated cell sorting (FACS). The peptide constructs tested were Tat49-57 (Fl-ahx-[…]; SEQ ID NO:8): Tat49-56 (Fl-ahx-[…]; SEQ ID NO:9), Tat49-55 (Fl-ahx-RKKRRQR; SEQ ID NO: 10), Tat50-57 (Fl-ahx-[…]; SEQ ID NO: 11), and Tat51-57 (Fl-ahx-KRRQRRR; SEQ ID NO: 12). Differentiation between cell surface binding and internalization was accomplished throughout by running a parallel set of assays in the presence and absence of sodium azide. Because sodium azide inhibits energy-dependent cellular uptake but not cell surface binding, the difference in fluorescence between the two assays provided the amount of fluorescence resulting from internalization.

[2] = system: Jurkat cells; experiment: Cellular uptake kinetics assay (Michaelis-Menton); assay type: cell-based, human; design: Vmax: unit not given here; conditions: for Km / Vmax / rate of entering cells, fold faster than Tat47-59: Jurkat cells; for Km / Vmax: incubation 30, 60, 120, 240 seconds, 3° C.; for rate of entering cells, fold faster than Tat47-59: from Km values
Protocol: as §1
Cellular Uptake Kinetics Assay. The assays were performed as previously described except the cells were incubated for 0.5, 1, 2, and 4 min at 4° C. in triplicate in 2% FCS/PBS (50 μl) in microtiter plates (96 well). The reactions were quenched by diluting the samples into 2% FCS/PBS (5 mL). The assays were then worked up and analyzed by fluorescent flow cytometry as previously described.
The rates of cellular uptake were determined after incubation (3° C.) of the peptides in Jurkat cells for 30, 60, 120, and 240 seconds (Table 1).

[3] = system: skin of nude mice; experiment: Penetration of biotinylated conjugates into skin of nude mice (streptavidin staining); conditions: 1 mM-100 μM in PBS, nude mice, thirty, sixty, 120 minutes
Protocol: Samples (100 μl) were applied as a liquid without excipient, prevented from dispersing by a Vaseline™ barrier, and allowed to penetrate for fifteen minutes. At the end of this period the animal was sacrificed, the relevant sections of skin were excised, embedded in mounting medium (OCT), and frozen. Frozen sections (5 microns) were cut using a cryostat, collected on slides, and stained with fluorescently labeled streptavidin (Vector Laboratories, Burlingame, Calif.). The slides were fixed in acetone at 4° C. for ten minutes, air dried, soaked in PBS for five minutes, blocked with normal goat serum for five minutes, and washed with PBS for five minutes. The section was stained by incubation with fluorescently labeled streptavidin at 30 μg/ml for thirty minutes, washed with PBS, counterstained with propidium iodide (1 μg/ml) for two minutes, and the section was mounted with Vectashield™ mounting media. Slides were analyzed by fluorescent microscopy. Parallel studies were done using streptavidin-horse radish peroxidase rather than fluorescein-streptavidin. The biotinylated peptide was visualized by treatment of the sections with the horseradish peroxidase substrate diaminobenzadine, and visualization with light microscopy.
Alternatively, sample (100 μl) was applied as a liquid without excipient and prevented from evaporating by wrapping plastic wrap over the sample sealed with Vaseline™. […] At the end of this period animal was sacrificed, the relevant section of skin was excised, embedded in mounting medium (OCT) and frozen. […] Slides were analyzed by fluorescent microscopy.
At the end of this period animal was sacrificed, the relevant section of skin was excised, embedded in mounting medium (OCT) and frozen. […] Slides were analyzed by fluorescent microscopy
(§2) At the end of this period animal was sacrificed, the relevant section of skin was excised, embedded in mounting medium (OCT) and frozen. […] Slides were analyzed by fluorescent microscopy.
as §2

[4] = system: ear inflammation in Balb/c mice; experiment: Murine contact dermatitis (DNFB), ear inflammation; assay type: in vivo, mouse
Protocol: Balb/c (6-7 weeks) mice were painted on the abdomen with 100 μl of 0.7% DNFB in acetone olive oil (95:5). Three days later both ears of the animals were restimulated with 0.5% DNFB in acetone. […] Ear inflammation was measured 24 hours after restimulation using a spring loaded caliper. The percent reduction of inflammation was calculated using the following formula […], where t=thickness of the treated ear, n=the thickness of a normal untreated ear, and u=thickness of an inflamed ear without any treatment. N=20 animals in each group.

N=C(N)NCCC[C@H](NC(=O)[C@H](CCC(N)=O)NC(=O)[C@H](CCCNC(=N)N)NC(=O)[C@H](CCCNC(=N)N)NC(=O)[C@H](CCCCN)NC(=O)[C@H](CCCCN)NC(=O)[C@H](CCCNC(=N)N)NC(=O)CCCCCNC(=S)Nc1ccc2c(c1)C(=O)OC21c2ccc(O)cc2Oc2cc(O)ccc21)C(N)=O [Tat49-55, Fl-ahx-RKKRRQR] ({FITC-Ahx}-RKKRRQR-NH2)
additional loss of intracellular fluorescence from the one amino acid truncated analogs [1]: 60%

N=C(N)NCCC[C@H](NC(=O)[C@H](CCCCN)NC(=O)[C@H](CCCCN)NC(=O)[C@H](CCCNC(=N)N)NC(=O)[C@H](CCCNC(=N)N)NC(=O)[C@H](CCC(N)=O)NC(=O)[C@H](CCCNC(=N)N)NC(=O)[C@H](CCCNC(=N)N)NC(=O)[C@H](CCCNC(=N)N)NC(=O)CCCCCNC(=S)Nc1ccc2c(c1)C(=O)OC21c2ccc(O)cc2Oc2cc(O)ccc21)C(N)=O [Tat57-49]
cellular uptake relative to Tat49-57 [1]: more effective at entering Jurkat cells then Tat49-57

CC[C@H](C)[C@H](NC(=O)[C@H](CCCCN)NC(=O)[C@@H](NC(=O)[C@H](CCC(N)=O)NC(=O)[C@H](CCCNC(=N)N)NC(=O)CCCCCNC(=S)Nc1ccc2c(c1)C(=O)OC21c2ccc(O)cc2Oc2cc(O)ccc21)[C@@H](C)CC)C(=O)N[C@@H](Cc1c[nH]c2ccccc12)C(=O)N[C@@H](Cc1ccccc1)C(=O)N[C@@H](CCC(N)=O)C(=O)N[C@@H](CC(N)=O)C(=O)N[C@@H](CCCNC(=N)N)C(=O)N[C@@H](CCCNC(=N)N)C(=O)N[C@@H](CCSC)C(=O)N[C@@H](CCCCN)C(=O)N[C@@H](Cc1c[nH]c2ccccc12)C(=O)N[C@@H](CCCCN)C(=O)N[C@@H](CCCCN)C(N)=O [Antennapedia43-58, reference compound]
Km [2]: 427 µM | Vmax [2]: 0.41 | rate of entering cells, fold faster than Tat47-59 [2]: approximately 2 fold

N=C(N)NCCC[C@@H](NC(=O)[C@@H](CCCCN)NC(=O)[C@@H](CCCCN)NC(=O)[C@@H](CCCNC(=N)N)NC(=O)[C@@H](CCCNC(=N)N)NC(=O)[C@@H](CCC(N)=O)NC(=O)[C@@H](CCCNC(=N)N)NC(=O)[C@@H](CCCNC(=N)N)NC(=O)[C@@H](CCCNC(=N)N)NC(=O)CCCCCNC(=S)Nc1ccc2c(c1)C(=O)OC21c2ccc(O)cc2Oc2cc(O)ccc21)C(N)=O [d-Tat57-49, F1-ahx-rrrqrrkkr]
cellular uptake relative to Tat49-57 [1]: more effective at entering Jurkat cells then Tat49-57

CC(=O)O[C@H]1C(=O)[C@@]2(C)[C@H]([C@H](OC(=O)c3ccccc3)[C@]3(O)C[C@H](OC(=O)[C@H](OC(=O)NCCCC[C@H](NC(=O)[C@@H](CCCNC(=N)N)NC(=O)[C@@H](CCCNC(=N)N)NC(=O)[C@@H](CCCNC(=N)N)NC(=O)[C@@H](CCCNC(=N)N)NC(=O)[C@@H](CCCNC(=N)N)NC(=O)[C@@H](CCCNC(=N)N)NC(=O)[C@@H](CCCNC(=N)N)NC(=O)[C@@H](CCCNC(=N)N)NC(=O)[C@@H](CCCNC(=N)N)NC(=O)CCCCCNC(=O)CCCC[C@@H]4SC[C@@H]5NC(=O)N[C@@H]54)C(N)=O)[C@@H](NC(=O)c4ccccc4)c4ccccc4)C(C)=C1C3(C)C)[C@]1(OC(C)=O)CO[C@@H]1C[C@@H]2O [B-aca-r9-K-taxol]
penetration of drug conjugates into skin [3]: effectively entered into and across the epidermis and into the dermis of the skin of nude mice

R7 (SEQ ID NO:3): heptamer that consists of L-arginine residues; SEQ ID NO:3 (RRRRRRR)
reduction in ear inflammation ([4]; 1% topical, 1, 5 and 20 h after restimulation, measured 24 hours): No reduction of inflammation was observed

N=C(N)NCCC[C@H](NC(=O)[C@H](CCCNC(=N)N)NC(=O)[C@H](CCCNC(=N)N)NC(=O)[C@H](CCC(N)=O)NC(=O)[C@H](CCCNC(=N)N)NC(=O)[C@H](CCCNC(=N)N)NC(=O)[C@H](CCCCN)NC(=O)[C@H](CCCCN)NC(=O)[C@H](CCCNC(=N)N)NC(=O)CCCCCNC(=S)Nc1ccc2c(c1)C(=O)OC21c2ccc(O)cc2Oc2cc(O)ccc21)C(N)=O [Tat49-57, reference compound]
cellular uptake relative to Tat49-57 [1]: between that of R6 and R7 | Km [2]: 770 µM | Vmax [2]: 0.38

N=C(N)NCCC[C@@H](NC(=O)[C@@H](CCCNC(=N)N)NC(=O)[C@@H](CCCNC(=N)N)NC(=O)[C@@H](CCC(N)=O)NC(=O)[C@@H](CCCNC(=N)N)NC(=O)[C@@H](CCCNC(=N)N)NC(=O)[C@@H](CCCCN)NC(=O)[C@@H](CCCCN)NC(=O)[C@@H](CCCNC(=N)N)NC(=O)CCCCCNC(=S)Nc1ccc2c(c1)C(=O)OC21c2ccc(O)cc2Oc2cc(O)ccc21)C(N)=O [d-Tat49-57, F1-ahx-rkkrrqrrr]
cellular uptake relative to Tat49-57 [1]: more effective at entering Jurkat cells then Tat49-57

C[C@H](NC(=O)[C@H](CCCNC(=N)N)NC(=O)[C@H](CCCNC(=N)N)NC(=O)[C@H](CCCCN)NC(=O)[C@H](CCCCN)NC(=O)[C@H](CCCNC(=N)N)NC(=O)CCCCCNC(=S)Nc1ccc2c(c1)C(=O)OC21c2ccc(O)cc2Oc2cc(O)ccc21)C(=O)N[C@@H](CCCNC(=N)N)C(=O)N[C@@H](CCCNC(=N)N)C(=O)N[C@@H](CCCNC(=N)N)C(N)=O [A-54] ({FITC-Ahx}-RKKRRARRR-NH2)
cellular uptake relative to Tat49-57 [1]: modest decrease in cellular internalization

N=C(N)NCCC[C@H](NC(=O)[C@H](CCCNC(=N)N)NC(=O)[C@H](CCCNC(=N)N)NC(=O)[C@H](CCC(N)=O)NC(=O)[C@H](CCCNC(=N)N)NC(=O)[C@H](CCCNC(=N)N)NC(=O)[C@H](CCCCN)NC(=O)CCCCCNC(=S)Nc1ccc2c(c1)C(=O)OC21c2ccc(O)cc2Oc2cc(O)ccc21)C(N)=O [Tat51-57, Fl-ahx-KRRQRRR] ({FITC-Ahx}-KRRQRRR-NH2)
additional loss of intracellular fluorescence from the one amino acid truncated analogs [1]: did not further diminish the amount of internalization

N=C(N)NCCC[C@H](NC(=O)[C@H](CCCNC(=N)N)NC(=O)[C@H](CCCNC(=N)N)NC(=O)[C@H](CCCNC(=N)N)NC(=O)[C@H](CCCNC(=N)N)NC(=O)[C@H](CCCNC(=N)N)NC(=O)[C@H](CCCNC(=N)N)NC(=O)[C@H](CCCNC(=N)N)NC(=O)[C@H](CCCNC(=N)N)NC(=O)CCCCCNC(=S)Nc1ccc2c(c1)C(=O)OC21c2ccc(O)cc2Oc2cc(O)ccc21)C(N)=O (single isomer, unassigned) [R9]
Km values fold greater / fold better than Tat49-57 ([2]; Discussion): 30 fold | Km [2]: 44 µM | Vmax [2]: 0.37 | rate of entering cells, fold faster than Tat47-59 [2]: ~20 fold

CC1(C)O[C@@H]2C[C@H]3[C@@H]4CCC5=CC(=O)C=C[C@]5(C)[C@@]4(F)[C@@H](O)C[C@]3(C)[C@]2(C(=O)CO)O1 [triamcinolone acetonide, reference compound]
reduction in ear inflammation ([4]; 0.1% topical): 34.1%±6.3
